Reference: US8183387B2, “Phenylpyrazole derivatives” (Taisho Pharmaceutical Co., Ltd, priority 2007, dated 2012)

Target: human H3 receptor (Homo sapiens, UniProt Q9Y5N1)
Assay: H3 receptor binding test (R(−)-α-methyl[3H]histamine)
Design: purchased Euroscreen ES-392-M; host or cells: CHO-K1
Settings: inhibition of R(−)-α-methyl[3H]histamine (2 nM) binding, membrane of human H3 receptor-expressing CHO-K1 cells
Description: A membrane preparation of human H3 receptor-expressing CHO-K1 cells (Euroscreen, ES-392-M, 15 μg protein/200 μl), R(−)-α-methyl[^3H]histamine (Amersham, TRK-1017, specific activity: 1.74 TBq/mmol, 2 nM) and a test drug were reacted at room temperature for 1 hour. After completion of the reaction, the reaction mixture was subjected to suction filtration through a 0.3% polyethyleneimine-treated glass filter (GF/C). The glass filter was washed five times with 50 mM Tris-HCl washing solution (pH 7.4) containing 5 mM EDTA. After washing, the glass filter was dried and a scintillator was added thereto, followed by measurement of radioactivity on the filter using a liquid scintillation counter.
A fixed concentration (2 nM) of R(−)-α-methyl[^3H]histamine was reacted under the above conditions with each test drug at various concentrations to obtain an inhibition curve.

Chain of human H3 receptor (Q9Y5N1 whole entry): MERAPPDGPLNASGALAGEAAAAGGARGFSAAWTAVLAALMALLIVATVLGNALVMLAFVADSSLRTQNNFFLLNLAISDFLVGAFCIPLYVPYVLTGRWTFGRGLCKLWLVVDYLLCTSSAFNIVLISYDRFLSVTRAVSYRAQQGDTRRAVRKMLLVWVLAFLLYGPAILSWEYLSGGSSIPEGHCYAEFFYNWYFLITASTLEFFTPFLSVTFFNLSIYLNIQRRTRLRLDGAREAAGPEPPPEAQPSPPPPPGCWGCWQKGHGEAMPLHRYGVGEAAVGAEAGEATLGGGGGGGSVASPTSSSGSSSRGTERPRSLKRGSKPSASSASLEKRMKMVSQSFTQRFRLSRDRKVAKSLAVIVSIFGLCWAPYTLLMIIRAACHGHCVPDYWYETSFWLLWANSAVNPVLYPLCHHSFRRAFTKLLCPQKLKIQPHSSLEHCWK

Structure (SMILES) | IC50
CC(=O)Nc1cnn(-c2ccc(OCCCN3CCC[C@H]3C)cc2)c1 [Example 37, N-[1-(4-{3-[(2R)-2-methylpyrrolidin-1-yl]propoxy}phenyl)-1H-pyrazol-4-yl]acetamide] | 2.1 nM
CC(=O)N(C)c1cnn(-c2ccc(OCCCN3CCC[C@H]3C)cc2)c1 [Example 38, N-methyl-N-[1-(4-{3-[(2R)-2-methylpyrrolidin-1-yl]propoxy}phenyl)-1H-pyrazol-4-yl]acetamide] | 0.9 nM
CCN(C(C)=O)c1cnn(-c2ccc(OCCCN3CCCC3C)cc2)c1 (stereo not drawn) [Example 39, N-ethyl-N-(1-{4-[3-(2-methylpyrrolidin-1-yl)propoxy]phenyl}-1H-pyrazol-4-yl)acetamide] | 3.5 nM
CC1CCCN1CCCOc1ccc(-n2cc(NC(=O)c3ccc(C#N)cc3)cn2)cc1 (stereo not drawn) [Example 40, 4-cyano-N-(1-{4-[3-(2-methylpyrrolidin-1-yl)propoxy]phenyl}-1H-pyrazol-4-yl)benzamide] | 4.4 nM
COc1ccc(C(=O)Nc2cnn(-c3ccc(OCCCN4CCCC4C)cc3)c2)cc1 (stereo not drawn) [Example 41, 4-methoxy-N-(1-{4-[3-(2-methylpyrrolidin-1-yl)propoxy]phenyl}-1H-pyrazol-4-yl)benzamide] | 2.1 nM
C[C@@H]1CCCN1CCCOc1ccc(-n2cc(NC(=O)c3ccc(O)cc3)cn2)cc1 [Example 42, 4-hydroxy-N-[1-(4-{3-[(2R)-2-methylpyrrolidin-1-yl]propoxy}phenyl)-1H-pyrazol-4-yl]benzamide] | 1.7 nM
C[C@@H]1CCCN1CCCOc1ccc(-n2cc(NC(=O)c3cccnc3)cn2)cc1 [Example 43, N-[1-(4-{3-[(2R)-2-methylpyrrolidin-1-yl]propoxy}phenyl)-1H-pyrazol-4-yl]pyridine-3-carboxamide] | 1 nM
C[C@@H]1CCCN1CCCOc1ccc(-n2cc(NC(=O)c3ccncc3)cn2)cc1 [Example 44, N-[1-(4-{3-[(2R)-2-methylpyrrolidin-1-yl]propoxy}phenyl)-1H-pyrazol-4-yl]pyridine-4-carboxamide] | 0.8 nM
C[C@@H]1CCCN1CCCOc1ccc(-n2cc(NC(=O)Cc3ccc(O)cc3)cn2)cc1 [Example 45, 2-(4-hydroxyphenyl)-N-[1-(4-{3-[(2R)-2-methylpyrrolidin-1-yl]propoxy}phenyl)-1H-pyrazol-4-yl]acetamide] | 1.1 nM
C[C@@H]1CCCN1CCCOc1ccc(-n2cc(NC(=O)Cc3cccnc3)cn2)cc1 [Example 46, N-[1-(4-{3-[(2R)-2-methylpyrrolidin-1-yl]propoxy}phenyl)-1H-pyrazol-4-yl]-2-(pyridin-3-yl)acetamide] | 1.4 nM
C[C@@H]1CCCN1CCCOc1ccc(-n2cc(NC(=O)Cc3ccncc3)cn2)cc1 [Example 47, N-[1-(4-{3-[(2R)-2-methylpyrrolidin-1-yl]propoxy}phenyl)-1H-pyrazol-4-yl]-2-(pyridin-4-yl)acetamide] | 1.5 nM
C[C@@H]1CCCN1CCCOc1ccc(-n2cc(NS(C)(=O)=O)cn2)cc1 [Example 48, N-[1-(4-{3-[(2R)-2-methylpyrrolidin-1-yl]propoxy}phenyl)-1H-pyrazol-4-yl]methanesulfonamide] | 4.1 nM
C[C@@H]1CCCN1CCCOc1ccc(-n2cc(N(C)S(C)(=O)=O)cn2)cc1 [Example 49, N-methyl-N-[1-(4-{3-[(2R)-2-methylpyrrolidin-1-yl]propoxy}phenyl)-1H-pyrazol-4-yl]methanesulfonamide] | 3.1 nM
CC1CCCN1CCCOc1ccc(-n2cc(NS(=O)(=O)c3ccc(C#N)cc3)cn2)cc1 (stereo not drawn) [Example 50, 4-cyano-N-(1-{4-[3-(2-methylpyrrolidin-1-yl)propoxy]phenyl}-1H-pyrazol-4-yl)benzenesulfonamide] | 31.9 nM
C[C@@H]1CCCN1CCCOc1ccc(-n2cc(NS(=O)(=O)c3cccnc3)cn2)cc1 [Example 51, N-[1-(4-{3-[(2R)-2-methylpyrrolidin-1-yl]propoxy}phenyl)-1H-pyrazol-4-yl]pyridine-3-sulfonamide] | 13.7 nM
CC1CCCN1CCCOc1ccc(-n2cc(N3C(=O)CCC3=O)cn2)cc1 (stereo not drawn) [Example 52, 1-(1-{4-[3-(2-methylpyrrolidin-1-yl)propoxy]phenyl}-1H-pyrazol-4-yl)pyrrolidine-2,5-dione] | 6 nM
C[C@@H]1CCCN1CCCCOc1ccc(-n2cc(C(=O)N3CCOCC3)cn2)cc1 [Example 61, [1-(4-{4-[(2R)-2-methylpyrrolidin-1-yl]butoxy}phenyl)-1H-pyrazol-4-yl](morpholin-4-yl)methanone] | 39.2 nM

The remaining lines, values ahead:

IC50 | Structure (SMILES)
6.1 nM | C[C@@H]1CN(C(=O)c2cnn(-c3ccc(OCCCN4CCC[C@H]4C)cc3)c2)C[C@H](C)O1 [Example 53, (2,6-dimethylmorpholin-4-yl)[1-(4-{3-[(2R)-2-methylpyrrolidin-1-yl]propoxy}phenyl)-1H-pyrazol-4-yl]methanone]
50.7 nM | CC1CCN(CCCOc2ccc(-n3cc(C(=O)N4CCOCC4)cn3)cc2)C1 (stereo not drawn) [Example 57, (1-{4-[3-(3-methylpyrrolidin-1-yl)propoxy]phenyl}-1H-pyrazol-4-yl)(morpholin-4-yl)methanone]
8.7 nM | CCC1CCCN1CCCOc1ccc(-n2cc(C(=O)N3CCOCC3)cn2)cc1 (stereo not drawn) [Example 58, (1-{4-[3-(2-ethylpyrrolidin-1-yl)propoxy]phenyl}-1H-pyrazol-4-yl)(morpholin-4-yl)methanone]
1180 nM | O=C(c1cnn(-c2ccc(OCCCN3CCCC3(F)F)cc2)c1)N1CCOCC1 [Example 59, (1-{4-[3-(2,2-difluoropyrrolidin-1-yl)propoxy]phenyl}-1H-pyrazol-4-yl)(morpholin-4-yl)methanone]
1560 nM | C[C@@H]1CCCN1CCOc1ccc(-n2cc(C(=O)N3CCOCC3)cn2)cc1 [Example 60, [1-(4-{2-[(2R)-2-methylpyrrolidin-1-yl]ethoxy}phenyl)-1H-pyrazol-4-yl](morpholin-4-yl)methanone]
20.7 nM | Cc1cc(OCCCN2CCC[C@H]2C)ccc1-n1cc(C(=O)N2CCOCC2)cn1 [Example 63, [1-(2-methyl-4-{3-[(2R)-2-methylpyrrolidin-1-yl]propoxy}phenyl)-1H-pyrazol-4-yl](morpholin-4-yl)methanone]
10 nM | C[C@@H]1CCCN1CCCOc1ccc(-n2cc(C(=O)N3CCOCC3)cn2)cc1Br [Example 64, [1-(3-bromo-4-{3-[(2R)-2-methylpyrrolidin-1-yl]propoxy}phenyl)-1H-pyrazol-4-yl](morpholin-4-yl)methanone]
5.9 nM | C[C@@H]1CCCN1CCCOc1ccc(-n2cc(C(=O)N3CCOC(O)C3)cn2)cc1 (stereo partly drawn) [Example 65, (2-hydroxymorpholin-4-yl)[1-(4-{3-[(2R)-2-methylpyrrolidin-1-yl]propoxy}phenyl)-1H-pyrazol-4-yl]methanone]
74.8 nM | C[C@@H]1CCCN1CCCOc1ccc(-n2cc(C(=O)N(CCO)CC(=O)O)cn2)cc1 [Example 68, N-(2-hydroxyethyl)-N-{[1-(4-{3-[(2R)-2-methylpyrrolidin-1-yl]propoxy}phenyl)-1H-pyrazol-4-yl]carbonyl}glycine]
4.6 nM | C[C@@H]1CCCN1CCCOc1ccc(-n2cc(C(=O)NCCOCCO)cn2)cc1 [Example 69, N-[2-(2-hydroxyethoxy)ethyl]-1-{4-[3-(2-methylpyrrolidin-1-yl)propoxy]phenyl}-1H-pyrazole-4-carboxamide]
